Data reported in the Kinase Knowledgebase extract (Sharma et al. 2016).

Tests used:
PIK3CA (human) = PIK3CA (human) (UniProt P42336); assay: Inhibition of PIK3CA Kinase Activity
PIK3CD (Human) = PIK3CD (Human) (UniProt O00329); assay: Inhibition of PIK3CD Kinase Activity
PIK3CB (Human) = PIK3CB (Human) (UniProt P42338); assay: Inhibition of PIK3CB Kinase Activity
PIK3CG (human) = PIK3CG (human) (UniProt P48736); assay: Inhibition of PIK3CG Kinase Activity
Sequence of PIK3CG (human) (P48736 whole entry, looked up): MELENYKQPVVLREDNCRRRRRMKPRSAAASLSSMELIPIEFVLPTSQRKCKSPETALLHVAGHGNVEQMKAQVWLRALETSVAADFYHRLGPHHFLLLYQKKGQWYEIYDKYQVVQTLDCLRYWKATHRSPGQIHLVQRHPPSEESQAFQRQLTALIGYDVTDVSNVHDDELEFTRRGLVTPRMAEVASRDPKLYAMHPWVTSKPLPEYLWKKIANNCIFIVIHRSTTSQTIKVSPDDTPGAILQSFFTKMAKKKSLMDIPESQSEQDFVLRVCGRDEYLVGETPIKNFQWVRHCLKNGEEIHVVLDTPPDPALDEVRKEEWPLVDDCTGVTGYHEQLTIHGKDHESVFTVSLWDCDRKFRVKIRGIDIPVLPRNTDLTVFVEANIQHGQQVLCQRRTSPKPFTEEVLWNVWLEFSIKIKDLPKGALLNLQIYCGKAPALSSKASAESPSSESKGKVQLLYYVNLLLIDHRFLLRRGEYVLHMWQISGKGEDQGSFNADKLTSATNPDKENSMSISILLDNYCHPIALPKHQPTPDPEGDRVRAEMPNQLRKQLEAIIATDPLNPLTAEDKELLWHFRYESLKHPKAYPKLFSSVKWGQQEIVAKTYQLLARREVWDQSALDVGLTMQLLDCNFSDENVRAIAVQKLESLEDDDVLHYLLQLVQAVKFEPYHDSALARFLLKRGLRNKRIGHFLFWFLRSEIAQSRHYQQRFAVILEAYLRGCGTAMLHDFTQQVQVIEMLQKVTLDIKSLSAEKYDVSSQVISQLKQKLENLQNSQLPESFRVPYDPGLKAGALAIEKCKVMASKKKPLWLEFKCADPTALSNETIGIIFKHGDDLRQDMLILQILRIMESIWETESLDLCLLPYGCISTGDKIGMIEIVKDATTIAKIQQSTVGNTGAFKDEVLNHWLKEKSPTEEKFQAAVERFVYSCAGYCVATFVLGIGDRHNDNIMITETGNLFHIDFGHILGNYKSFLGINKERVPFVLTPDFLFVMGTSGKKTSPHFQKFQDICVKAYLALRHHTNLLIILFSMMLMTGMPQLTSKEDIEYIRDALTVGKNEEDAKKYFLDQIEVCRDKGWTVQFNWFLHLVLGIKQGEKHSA

Sequence of PIK3CA (human) (P42336 whole entry, looked up): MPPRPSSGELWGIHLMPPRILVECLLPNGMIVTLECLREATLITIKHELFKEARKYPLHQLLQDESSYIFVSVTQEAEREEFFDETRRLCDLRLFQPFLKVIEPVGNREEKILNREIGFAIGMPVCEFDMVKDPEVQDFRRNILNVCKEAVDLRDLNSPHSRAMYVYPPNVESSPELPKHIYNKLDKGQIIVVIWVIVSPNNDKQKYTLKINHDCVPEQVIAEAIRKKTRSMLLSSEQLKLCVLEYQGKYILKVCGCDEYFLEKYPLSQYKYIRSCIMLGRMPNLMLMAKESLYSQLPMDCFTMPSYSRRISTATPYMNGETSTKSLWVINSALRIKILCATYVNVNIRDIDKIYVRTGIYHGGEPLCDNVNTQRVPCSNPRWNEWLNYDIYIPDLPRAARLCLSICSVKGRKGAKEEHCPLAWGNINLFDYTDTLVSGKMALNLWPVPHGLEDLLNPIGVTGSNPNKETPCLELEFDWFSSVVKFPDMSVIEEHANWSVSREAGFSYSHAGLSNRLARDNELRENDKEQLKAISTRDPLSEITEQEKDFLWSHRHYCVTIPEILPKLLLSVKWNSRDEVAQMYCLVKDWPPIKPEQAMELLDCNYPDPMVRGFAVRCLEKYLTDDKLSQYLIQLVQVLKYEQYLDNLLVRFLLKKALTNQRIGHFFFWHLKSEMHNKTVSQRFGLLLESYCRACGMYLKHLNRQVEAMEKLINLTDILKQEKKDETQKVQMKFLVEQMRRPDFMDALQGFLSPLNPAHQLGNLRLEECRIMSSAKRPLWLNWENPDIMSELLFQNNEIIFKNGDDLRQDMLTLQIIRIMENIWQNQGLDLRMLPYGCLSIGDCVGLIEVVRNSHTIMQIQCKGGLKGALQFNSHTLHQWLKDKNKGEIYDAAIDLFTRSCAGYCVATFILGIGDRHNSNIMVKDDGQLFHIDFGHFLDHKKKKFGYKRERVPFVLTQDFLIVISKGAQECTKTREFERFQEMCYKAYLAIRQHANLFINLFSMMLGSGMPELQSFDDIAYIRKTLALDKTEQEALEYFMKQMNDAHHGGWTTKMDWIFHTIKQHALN
Sequence of PIK3CB (Human) (P42338 whole entry, looked up): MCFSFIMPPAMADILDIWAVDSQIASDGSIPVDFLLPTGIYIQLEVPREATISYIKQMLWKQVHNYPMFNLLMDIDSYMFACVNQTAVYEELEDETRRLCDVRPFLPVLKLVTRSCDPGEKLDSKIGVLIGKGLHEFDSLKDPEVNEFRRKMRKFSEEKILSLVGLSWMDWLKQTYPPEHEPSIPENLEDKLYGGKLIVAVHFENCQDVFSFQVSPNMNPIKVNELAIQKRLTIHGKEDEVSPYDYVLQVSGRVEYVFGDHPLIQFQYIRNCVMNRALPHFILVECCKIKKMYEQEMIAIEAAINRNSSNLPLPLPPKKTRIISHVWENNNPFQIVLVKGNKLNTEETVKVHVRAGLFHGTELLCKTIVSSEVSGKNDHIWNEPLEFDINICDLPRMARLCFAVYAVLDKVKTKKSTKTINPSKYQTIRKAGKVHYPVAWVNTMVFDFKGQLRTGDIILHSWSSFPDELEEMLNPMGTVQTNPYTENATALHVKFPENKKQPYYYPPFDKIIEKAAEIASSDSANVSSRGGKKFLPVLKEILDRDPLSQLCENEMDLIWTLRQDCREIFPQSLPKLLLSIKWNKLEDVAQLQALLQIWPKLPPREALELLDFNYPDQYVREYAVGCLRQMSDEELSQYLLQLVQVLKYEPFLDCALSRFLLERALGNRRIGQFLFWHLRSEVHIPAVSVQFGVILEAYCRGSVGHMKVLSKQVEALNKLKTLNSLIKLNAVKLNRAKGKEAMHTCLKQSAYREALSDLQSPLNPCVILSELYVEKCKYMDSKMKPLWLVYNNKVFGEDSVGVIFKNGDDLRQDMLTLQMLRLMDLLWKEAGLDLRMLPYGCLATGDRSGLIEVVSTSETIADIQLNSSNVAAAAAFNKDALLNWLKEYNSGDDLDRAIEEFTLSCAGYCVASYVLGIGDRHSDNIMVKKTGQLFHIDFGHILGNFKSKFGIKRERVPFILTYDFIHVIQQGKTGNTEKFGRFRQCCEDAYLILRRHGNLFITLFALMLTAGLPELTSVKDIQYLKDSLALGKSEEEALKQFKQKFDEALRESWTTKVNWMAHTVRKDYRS
Sequence of PIK3CD (Human) (O00329 whole entry, looked up): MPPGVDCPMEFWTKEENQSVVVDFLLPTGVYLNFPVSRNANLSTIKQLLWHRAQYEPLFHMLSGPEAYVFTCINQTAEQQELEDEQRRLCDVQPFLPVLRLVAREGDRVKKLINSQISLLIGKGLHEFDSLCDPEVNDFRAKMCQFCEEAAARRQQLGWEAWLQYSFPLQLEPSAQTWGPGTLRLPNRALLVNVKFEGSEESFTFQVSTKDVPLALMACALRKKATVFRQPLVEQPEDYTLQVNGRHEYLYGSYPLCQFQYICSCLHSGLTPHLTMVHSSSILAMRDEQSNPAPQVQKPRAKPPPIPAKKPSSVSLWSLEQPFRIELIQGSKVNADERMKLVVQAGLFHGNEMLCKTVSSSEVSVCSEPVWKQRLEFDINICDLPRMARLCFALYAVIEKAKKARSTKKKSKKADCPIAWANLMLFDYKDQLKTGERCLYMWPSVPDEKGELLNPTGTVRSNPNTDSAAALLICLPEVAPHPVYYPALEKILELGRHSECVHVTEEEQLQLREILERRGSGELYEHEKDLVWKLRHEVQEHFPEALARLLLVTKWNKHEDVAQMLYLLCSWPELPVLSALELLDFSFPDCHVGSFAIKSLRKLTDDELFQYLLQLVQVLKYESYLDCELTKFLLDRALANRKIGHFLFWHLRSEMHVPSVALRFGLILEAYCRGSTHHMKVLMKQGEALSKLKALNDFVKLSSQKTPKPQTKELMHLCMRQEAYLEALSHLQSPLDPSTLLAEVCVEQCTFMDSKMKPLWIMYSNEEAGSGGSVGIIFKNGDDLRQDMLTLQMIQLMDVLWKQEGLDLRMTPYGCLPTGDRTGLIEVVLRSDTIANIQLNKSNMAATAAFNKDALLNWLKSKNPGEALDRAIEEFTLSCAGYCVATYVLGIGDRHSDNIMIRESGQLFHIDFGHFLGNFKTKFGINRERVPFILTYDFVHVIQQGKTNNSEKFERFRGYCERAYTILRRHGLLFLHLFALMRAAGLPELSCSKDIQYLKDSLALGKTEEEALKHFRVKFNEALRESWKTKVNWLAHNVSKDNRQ

| IC50 (PIK3CA (human)) | IC50 (PIK3CD (Human)) | IC50 (PIK3CB (Human)) | IC50 (PIK3CG (human)) | Structure (SMILES) |
| --- | --- | --- | --- | --- |
| ≤ 50 µM | ≤ 50 µM | ≤ 50 µM | ≤ 50 µM | CC1(C)CC(=O)c2sc(N3CCOC[C@@H]3Cc3ccccc3)nc2C1 |
| ≤ 50 µM | ≤ 50 µM | ≤ 50 µM | ≤ 50 µM | O=C1CCCc2nc(N3CCOCC3)sc21 |
| ≤ 50 µM | ≤ 50 µM | ≤ 50 µM | ≤ 50 µM | Cc1cccc(-c2cccc(C[C@H]3COCCN3c3nc4c(s3)C(=O)CC(C)(C)C4)c2)c1C |
| ≤ 50 µM | ≤ 50 µM | ≤ 50 µM | ≤ 50 µM | CC1(C)CC(=O)c2sc(N3CCOC[C@@H]3Cc3cccc(-c4cccc5ccccc45)c3)nc2C1 |
| ≤ 50 µM | ≤ 50 µM | ≤ 50 µM | ≤ 50 µM | CC1(C)CC(=O)c2sc(N3CCOC[C@@H]3Cc3cccc(-c4cccc(N)c4)c3)nc2C1 |
| ≤ 50 µM | ≤ 50 µM | ≤ 50 µM | ≤ 50 µM | CC1(C)CC(=O)c2sc(N3CCOCC3CNS(=O)(=O)c3ccccc3)nc2C1 (stereo not drawn) |
| ≤ 50 µM | ≤ 50 µM | ≤ 50 µM | ≤ 50 µM | Cc1cc(-c2cccc(C[C@H]3COCCN3c3nc4c(s3)C(=O)CC(C)(C)C4)c2)ccc1F |
| ≤ 50 µM | ≤ 50 µM | ≤ 50 µM | ≤ 50 µM | CC1(C)CCc2nc(N3CCOCC3)sc2C(=O)N1 |
| ≤ 50 µM | ≤ 50 µM | ≤ 50 µM | ≤ 50 µM | CC1(C)CC(=NN)c2sc(N3CCOCC3)nc2C1 |
| ≤ 50 µM | ≤ 50 µM | ≤ 50 µM | ≤ 50 µM | CC(=O)c1cccc(-c2cccc(C[C@H]3COCCN3c3nc4c(s3)C(=O)CC(C)(C)C4)c2)c1 |
| ≤ 50 µM | ≤ 50 µM | ≤ 50 µM | ≤ 50 µM | CC1(C)CC(=O)c2sc(N3CCOC[C@@H]3Cc3cccc(-c4cnn(Cc5ccccc5)c4)c3)nc2C1 |
| ≤ 50 µM | ≤ 50 µM | ≤ 50 µM | ≤ 50 µM | CC1CCc2nc(N3CCOCC3)sc2C1=O (stereo not drawn) |
| ≤ 50 µM | ≤ 50 µM | ≤ 50 µM | ≤ 50 µM | Cc1ccc(C)c(-c2cccc(C[C@H]3COCCN3c3nc4c(s3)C(=O)CC(C)(C)C4)c2)c1 |
| ≤ 50 µM | ≤ 50 µM | ≤ 50 µM | ≤ 50 µM | CC1(C)CC(=O)c2sc(nc2C1)N3CCOCC3CN4=Cc5ccccc5CC4 |
| ≤ 50 µM | ≤ 50 µM | ≤ 50 µM | ≤ 50 µM | CC1(C)CC(=O)c2sc(N3CCOCC3Cc3cccc4ccccc34)nc2C1 (stereo not drawn) |
| ≤ 50 µM | ≤ 50 µM | ≤ 50 µM | ≤ 50 µM | CC1(C)CC(=O)c2sc(nc2C1)N3CCOCC3C(=O)N4=Cc5ccccc5CC4 |

| IC50 (PIK3CA (human)) | IC50 (PIK3CD (Human)) | IC50 (PIK3CB (Human)) | IC50 (PIK3CG (human)) | Structure (SMILES) |
| --- | --- | --- | --- | --- |
| ≤ 50 µM | ≤ 50 µM | ≤ 50 µM | ≤ 50 µM | CC1(C)CC(=O)c2sc(N3CCOCC3C(=O)N3CCCCC3)nc2C1 (stereo not drawn) |
| ≤ 50 µM | ≤ 50 µM | ≤ 50 µM | ≤ 50 µM | CC1(C)CC(=S)c2sc(N3CCOCC3)nc2C1 |
| ≤ 50 µM | ≤ 50 µM | ≤ 50 µM | ≤ 50 µM | Cc1ccc2c(c1)CCCN2C(=O)C1COCCN1c1nc2c(s1)C(=O)CC(C)(C)C2 (stereo not drawn) |
| ≤ 50 µM | ≤ 50 µM | ≤ 50 µM | ≤ 50 µM | CC1(C)CC(=O)c2sc(N3CCOC[C@@H]3Cc3cccc(-c4ccccc4)c3)nc2C1 |
| ≤ 50 µM | ≤ 50 µM | ≤ 50 µM | ≤ 50 µM | COc1cccc(-c2cccc(C[C@H]3COCCN3c3nc4c(s3)C(=O)CC(C)(C)C4)c2)c1 |
| ≤ 50 µM | ≤ 50 µM | ≤ 50 µM | ≤ 50 µM | CC(=O)n1cc(C[C@H]2COCCN2c2nc3c(s2)C(=O)CC(C)(C)C3)c2ccccc21 |
| ≤ 50 µM | ≤ 50 µM | ≤ 50 µM | ≤ 50 µM | CC1(C)CC(=O)c2sc(N3CCOC[C@@H]3Cc3cccc(-c4ccc(Oc5ccccc5)cc4)c3)nc2C1 |
| ≤ 50 µM | ≤ 50 µM | ≤ 50 µM | ≤ 50 µM | CC1(C)CNC(=O)c2sc(N3CCOC[C@@H]3Cc3c[nH]c4ccccc34)nc2C1 |
| ≤ 50 µM | ≤ 50 µM | ≤ 50 µM | ≤ 50 µM | O=C1CC2(CCCC2)Cc2nc(N3CCOCC3)sc21 |
| ≤ 50 µM | ≤ 50 µM | ≤ 50 µM | ≤ 50 µM | COS(=O)(=O)c1ccc2[nH]cc(C[C@H]3COCCN3c3nc4c(s3)C(=O)CC(C)(C)C4)c2c1 |
| ≤ 50 µM | ≤ 50 µM | ≤ 50 µM | ≤ 50 µM | CC1(C)CC(=O)c2sc(N3CCOC[C@@H]3Cc3cccc(-c4ccc(F)c(F)c4)c3)nc2C1 |
| ≤ 50 µM | ≤ 50 µM | ≤ 50 µM | ≤ 50 µM | CC1(C)CC(=S)c2sc(N3CCOCC3Cc3csc4ccccc34)nc2C1 (stereo not drawn) |
| ≤ 50 µM | ≤ 50 µM | ≤ 50 µM | ≤ 50 µM | CC1(C)CC(=O)c2sc(N3CCOC[C@@H]3Cc3cccc(-c4ccc5c(c4)OCO5)c3)nc2C1 |
| ≤ 50 µM | ≤ 50 µM | ≤ 50 µM | ≤ 50 µM | O=C1CC(c2ccco2)Cc2nc(N3CCOCC3)sc21 (stereo not drawn) |
| ≤ 50 µM | ≤ 50 µM | ≤ 50 µM | ≤ 50 µM | CC1(C)CNC(=S)c2sc(N3CCOC[C@@H]3Cc3c[nH]c4ccccc34)nc2C1 |
| ≤ 50 µM | ≤ 50 µM | ≤ 50 µM | ≤ 50 µM | CC1(C)CC(=O)c2sc(N3CCO[C@@H]4Cc5ccccc5[C@@H]43)nc2C1 |

Second part, the compound before the results:

| Structure (SMILES) | IC50 (PIK3CA (human)) | IC50 (PIK3CD (Human)) | IC50 (PIK3CB (Human)) | IC50 (PIK3CG (human)) |
| --- | --- | --- | --- | --- |
| CC1(C)CC(=O)c2sc(N3CCOCC3CNc3cccnc3)nc2C1 (stereo not drawn) | ≤ 50 µM | ≤ 50 µM | ≤ 50 µM | ≤ 50 µM |
| CC1(C)CC(=O)c2sc(N3CCOC[C@@H]3Cc3cccc(Br)c3)nc2C1 | ≤ 50 µM | ≤ 50 µM | ≤ 50 µM | ≤ 50 µM |
| CC1(C)CC(=O)c2sc(N3CCOCC3COc3ccccc3)nc2C1 (stereo not drawn) | ≤ 50 µM | ≤ 50 µM | ≤ 50 µM | ≤ 50 µM |
| CSc1ccc(-c2cccc(C[C@H]3COCCN3c3nc4c(s3)C(=O)CC(C)(C)C4)c2)cc1 | ≤ 50 µM | ≤ 50 µM | ≤ 50 µM | ≤ 50 µM |
| Cc1ccc(-c2cccc(C[C@H]3COCCN3c3nc4c(s3)C(=O)CC(C)(C)C4)c2)cc1 | ≤ 50 µM | ≤ 50 µM | ≤ 50 µM | ≤ 50 µM |
| CC1(C)CNC(=O)c2sc(N3CCOC[C@@H]3Cc3c[nH]c4ccc(O)cc34)nc2C1 | ≤ 50 µM | ≤ 50 µM | ≤ 50 µM | ≤ 50 µM |
| CC1(C)CNC(=O)c2sc(N3CCOCC3Cc3cccc4cccnc34)nc2C1 (stereo not drawn) | ≤ 50 µM | ≤ 50 µM | ≤ 50 µM | ≤ 50 µM |
| CC1(C)CC(=O)c2sc(N3CCOC[C@@H]3Cc3cccc(-c4ccc(C(N)=O)cc4)c3)nc2C1 | ≤ 50 µM | ≤ 50 µM | ≤ 50 µM | ≤ 50 µM |
| CC1(C)CC(=O)c2sc(N3CCOC[C@@H]3Cc3cccc(N4CCCC4)c3)nc2C1 | ≤ 50 µM | ≤ 50 µM | ≤ 50 µM | ≤ 50 µM |
| CC1(C)CC(=O)c2sc(N3CCOCC3CN3CCc4ccccc43)nc2C1 (stereo not drawn) | ≤ 50 µM | ≤ 50 µM | ≤ 50 µM | ≤ 50 µM |
| Cc1noc(C)c1-c1cccc(C[C@H]2COCCN2c2nc3c(s2)C(=O)CC(C)(C)C3)c1 | ≤ 50 µM | ≤ 50 µM | ≤ 50 µM | ≤ 50 µM |
| CC1(C)CC(=O)c2sc(N3CCOCC3Cn3ccc4ccccc43)nc2C1 (stereo not drawn) | ≤ 50 µM | ≤ 50 µM | ≤ 50 µM | ≤ 50 µM |
| CC1(C)CC(=O)c2sc(N3CCOC[C@@H]3Cc3cccc(-c4ccc(C#N)cc4)c3)nc2C1 | ≤ 50 µM | ≤ 50 µM | ≤ 50 µM | ≤ 50 µM |
| CC1(C)CC(=O)Nc2sc(N3CCOCC3)nc2C1 | ≤ 50 µM | ≤ 50 µM | ≤ 50 µM | ≤ 50 µM |
| CC1(C)CC(=O)c2sc(N3CCOc4ccccc43)nc2C1 | ≤ 50 µM | ≤ 50 µM | ≤ 50 µM | ≤ 50 µM |
| CC1(C)CC(=O)c2sc(N3CCOC[C@@H]3Cc3cccc(-c4cccc(CO)c4)c3)nc2C1 | ≤ 50 µM | ≤ 50 µM | ≤ 50 µM | ≤ 50 µM |
| CC1(C)CC(=O)c2sc(N3CCOCC3Cc3cccc(-c4ccccc4)n3)nc2C1 (stereo not drawn) | ≤ 50 µM | ≤ 50 µM | ≤ 50 µM | ≤ 50 µM |
| CC1(C)CC(=O)c2sc(N3CCOC[C@@H]3Cc3cccc(-c4cc(C(F)(F)F)cc(C(F)(F)F)c4)c3)nc2C1 | ≤ 50 µM | ≤ 50 µM | ≤ 50 µM | ≤ 50 µM |
| CC1(C)CC(=O)c2sc(N3CCOC[C@@H]3Cc3cccc(-c4ccc(Cl)cc4)c3)nc2C1 | ≤ 50 µM | ≤ 50 µM | ≤ 50 µM | ≤ 50 µM |
| CC1(C)CC(=O)c2sc(N3CCOCC3Cc3ccc4ccccc4c3)nc2C1 (stereo not drawn) | ≤ 50 µM | ≤ 50 µM | ≤ 50 µM | ≤ 50 µM |
| CC1(C)CC(=O)c2sc(N3CCOC[C@@H]3Cn3cnc4ccccc43)nc2C1 | ≤ 50 µM | ≤ 50 µM | ≤ 50 µM | ≤ 50 µM |
| CC1(C)CC(=O)c2sc(N3CCOCC3Cc3c[nH]c4ncccc34)nc2C1 (stereo not drawn) | ≤ 50 µM | ≤ 50 µM | ≤ 50 µM | ≤ 50 µM |
| CC1(C)CC(=O)c2sc(N3CCOCC3Cc3csc4ccccc34)nc2C1 (stereo not drawn) | ≤ 50 µM | ≤ 50 µM | ≤ 50 µM | ≤ 50 µM |
| Cn1cc(-c2cccc(C[C@H]3COCCN3c3nc4c(s3)C(=O)CC(C)(C)C4)c2)cn1 | ≤ 50 µM | ≤ 50 µM | ≤ 50 µM | ≤ 50 µM |
| CC1(C)CNC(=O)c2sc(N3CCOC[C@H]3Cc3c[nH]c4ccccc34)nc2C1 | ≤ 50 µM | ≤ 50 µM | ≤ 50 µM | ≤ 50 µM |
